# Results from patent publication US5130300A, “Method for enhancing growth of mammary parenchyma” (Monsanto Company, priority 1987, dated 1992).
# Experiments:
# [1] = tested on: Quarter-Udders in Pregnant Beef Cows; assay: Intramammary infusion of hEGF or mEGF, quarter-udder weights and DNA (Examples 1-2); assay type: in vivo, cross-bred beef cows; settings: 25 micrograms per infusion, days 1,3,5,7,9, Freund's emulsion
# Method: 12 pregnant, non-lactating, cross-bred beef cows within their last 40-80 days of gestation were housed in a free-stall facility, fed a ration of alfalfa hay and pelleted concentrate, and administered 10 ml of an excipient (Freund's Incomplete Adjuvant emulsified with an equal volume of 0.9% sterile saline) into each quarter-udder by intramammary infusion through the streak canal on days 1, 3, 5, 7 and 9 of this study. Infusions were carried out using a 3.2 centimeter long, approximately 12 gauge, blunt-tipped plastic teat infusion cannula obtained from Jorgensen Laboratories, Loveland, Colo. Because front and rear udder halves are not of equal size, treatment vs. control comparisons were made between laterally opposite quarters, i.e., front right vs. front left and rear right vs. rear left. Treatments were randomly assigned to right or left udder-halves, with the contralateral half serving as its control. […] (the other 6 animals).
# Prior to treatment, each animal was teatdipped for 3 consecutive days and each teat was pre-cleaned with 70% ethanol in water on the day of treatment. On day 14 the cows were sacrificed and their mammary glands excised. Each udder (milked out if necessary) was skinned, divided along the median suspensory ligament and then into front right, front left, rear right and rear left udder quarters. Each quarter-udder was ground, a representative 200 gm sample was homogenized with 4 times its volume of water, and the total homogenate volume of each was measured.
# To determine dry weight of each quarter-udder, three 10 ml aliquots of a 1:5 diluted homogenate were placed in pre-weighed pans, dried overnight at 60° and then dried and weighed to a consistent value.
# To determine dry fat-free tissue weight of each quarter-udder, three 5 ml aliquots of the undiluted homogenate were extracted by the method of Anderson, 41 J. Anim. Sci. 118 (1975) except that samples were placed in pre-weighed 25×150 mm glass centrifuge tubes and extracted overnight with 10 ml ethanol:ether (3:1), then centrifuged (5 min at 500 rpm) and the supernatant aspirated; an additional 10 ml aliquot of ethanol:ether was added for a second extraction; and the sample was dried under nitrogen until a consistent value was obtained.
# DNA in each quarter-udder was determined by the method of Burton, 12B Methods in Enzymol. 163-66 (1968) using an assay solution of 15% trichloroacetic acid (TCA) in 2N HCl. In these determinations, aliquots of gland homogenate were diluted 1:5 with water and rehomogenized. Using triplicate 0.25 ml or 0.5 ml aliquots of these homogenates, each aliquot was mixed with 2 ml of the assay solution. After 30 min, the samples were centrifuged for 10 min at 3000 rpm and the resulting pellets were washed with 2 ml of a 10% solution of TCA in distilled water. After recentrifugation, the resulting pellets were disrupted in 2 ml of 0.5N perchloric acid and heated for 30 min at 70° to extract DNA. Samples were centrifuged and 1 ml of each resulting supernatant was placed in a 12×75 mm tube. After addition of 2 ml of a solution of 1.5 g diphenylamine and 1.5 ml H2 SO4 in 100 ml glacial acetic acid (and 0.1 ml of 1.6% aqueous acetaldehyde per 20 ml reagent just prior to use), the samples were vortexed and incubated overnight at 27°. Calf thymus DNA was the standard.
# [2] = tested on: Quarter-Udders in Pregnant Beef Cattle; assay: Intramammary infusion of prostaglandin E1 or E2, quarter-udder weights and DNA (Examples 25-28); assay type: in vivo, cross-bred beef cows; settings: for DNA, % Increase, (A-B)/B / DNA, Mean Increase (A-B) / Dry Weight, % Increase, (A-B)/B / Dry Weight, Mean Increase (A-B) / Wet Weight, % Increase, (A-B)/B / Wet Weight, Mean Increase (A-B) / Dry Fat-Free Weight, % Increase, (A-B)/B / Dry Fat-Free Weight, Mean Increase (A-B): B = excipient only
# Method: 24 pregnant, non-lactating, cross-bred beef cows in their last 45-105 days of gestation were housed in a free-stall facility, fed a ration of alfalfa hay and pelleted concentrate, and administered 5 ml of an excepient (MCT-Oil, a Mead Johnson Corp. medium chain triglyceride which is a lipid fraction of coconut oil consisting primarily of triglycerides of C8 and C10 fatty acids as follows: C8 -67%; C10 -23%; <C8 -6%; >C10 -4%) into each quarter-udder by intramammary infusion through the streak cannal on days 1, 3, 5, 7 and 9 of this study. The 48 front and rear udder halves were randomly divided into 4 groups, with one quarter of each udder half treated and its laterally opposite quarter-udder used as a control. In the treatment infusions, the excipient contained Prostaglandin (PG) E1 or E2 from Sigma Chemical Co., St. Louis, Mo. (Catalog Nos. 86F-0406 and -0404). The amounts of PG in each infusion were: Group 1-87.5 micrograms of E2; Group 2-875 micrograms of E2; Group 3-87.5 micrograms of E1; Group 4-875 micrograms of E1. Animals were prepared and infused as in Examples 23-24; the effects were determined as in Examples 1-2. Results for Groups 1-4 are in Tables 15-18, respectively.
# [3] = B = opposite quarter, excipient only
# [4] = total of 0.4375 milligrams (87.5 micrograms per infusion) in MCT-Oil
# [5] = total of 0.4375 milligrams in MCT-Oil
# [6] = total of 4.375 milligrams (875 micrograms per infusion) in MCT-Oil
# [7] = total of 4.375 milligrams in MCT-Oil
Compound,"DNA, Treatment Mean [2, 4]","Dry Fat-Free Weight, Treatment Mean [2, 4]","Dry Weight, Treatment Mean [2, 4]","Wet Weight, Treatment Mean [2, 4]","DNA, % Increase, (A-B)/B [2, 5]","DNA, Mean Increase (A-B) [2, 5]","Dry Weight, % Increase, (A-B)/B [2, 5]","Dry Weight, Mean Increase (A-B) [2, 5]","Wet Weight, % Increase, (A-B)/B [2, 5]","Wet Weight, Mean Increase (A-B) [2, 5]","DNA, Treatment Mean [2, 6]","Dry Fat-Free Weight, Treatment Mean [2, 6]","Dry Weight, Treatment Mean [2, 6]","Wet Weight, Treatment Mean [2, 6]","DNA, % Increase, (A-B)/B [2, 7]","DNA, Mean Increase (A-B) [2, 7]","Dry Fat-Free Weight, % Increase, (A-B)/B [2, 7]","Dry Fat-Free Weight, Mean Increase (A-B) [2, 7]","Dry Weight, % Increase, (A-B)/B [2, 7]","Dry Weight, Mean Increase (A-B) [2, 7]",other results
"mEGF: mouse EGF, culture-grade, from mouse submaxillary glands, Collaborative Research Corp. Catalog No. 40001 (NSYPGCPSSYDGYCLNGGVCMHIESLDSYTCNCVIGYSGDRCQTRDLRWWELR; not fully specified; Epidermal growth factor; UniProt P01132 977-1029, looked up)",,,,,,,,,,,,,,,,,,,,,"DNA, % Increase, (A-B)/B [1, 3]: 13.8%; DNA, Mean Increase (A-B) [1, 3]: 110.2 mg; Dry Fat-Free Weight, % Increase, (A-B)/B [1, 3]: 7.9%; Dry Fat-Free Weight, Mean Increase (A-B) [1, 3]: 5.0 g; Dry Weight, % Increase, (A-B)/B [1, 3]: 1.6%; Dry Weight, Mean Increase (A-B) [1, 3]: 2.3 g; Wet Weight, % Increase, (A-B)/B [1, 3]: 4.4%; Wet Weight, Mean Increase (A-B) [1, 3]: 17.6 g; DNA, Treatment Mean ([1]; day 14): 905.1 mg; Dry Fat-Free Weight, Treatment Mean ([1]; day 14): 69.6 g; Dry Weight, Treatment Mean ([1]; day 14): 150.2 g; Wet Weight, Treatment Mean ([1]; day 14): 419.6 g; DNA, Avg % Increase/Animal ([1]; vs excipient-only quarter): 12.0%; Dry Fat-Free Weight, Avg % Increase/Animal ([1]; vs excipient-only quarter): 5.2%; Dry Weight, Avg % Increase/Animal ([1]; vs excipient-only quarter): 2.1%; Wet Weight, Avg % Increase/Animal ([1]; vs excipient-only quarter): 1.8%"
"CCCCC[C@H](O)/C=C/[C@H]1[C@H](O)CC(=O)[C@@H]1CCCCCCC(=O)O [Prostaglandin E1, [11α,13E,15S]-11,15-Dihydroxy-9-oxoprost-13-en-1-oic acid]",2881 mg,180.9 g,259.3 g,972.5 g,26%,597 mg,23.0%,48.7 g,25.0%,194.5 g,4218 mg,247.7 g,379.6 g,1435.5 g,51.1%,1426 mg,31.0%,58.7 g,41.5%,111.4 g,"Wet Weight, % Increase, (A-B)/B [2, 7]: 51.2%; Wet Weight, Mean Increase (A-B) [2, 7]: 486.2 g"
"CCCCC[C@H](O)/C=C/[C@H]1[C@H](O)CC(=O)[C@@H]1C/C=C\CCCC(=O)O [Prostaglandin E2, [5Z,11α,13E,15S]-11,15-Dihydroxy-9-oxoprosta-5,13-dien-1-oic acid]",5203 mg,351.8 g,525.5 g,1966.9 g,10.1%,479 mg,8.3%,40.6 g,13.3%,231.4 g,3397 mg,194.5 g,312.7 g,1030.8 g,44.6%,1049 mg,34.8%,50.2 g,42.8%,93.7 g,"Dry Fat-Free Weight, % Increase, (A-B)/B [2, 5]: 18.1%; Dry Fat-Free Weight, Mean Increase (A-B) [2, 5]: 54.0 g; Wet Weight, % Increase, (A-B)/B [2, 7]: 38.9%; Wet Weight, Mean Increase (A-B) [2, 7]: 288.8 g"
